# Test results: ChEMBL document CHEMBL5291721, “A preclinical secondary pharmacology resource illuminates target-adverse drug reaction associations of marketed drugs” (Nat Commun, 2023)
# Assays:
# [1] = biological target: T1, Prostaglandin G/H synthase 1 (Homo sapiens, UniProt P23219); format: functional
# [2] = biological target: cGMP-inhibited 3',5'-cyclic phosphodiesterase 3A (Homo sapiens, UniProt Q14432); format: functional
# [3] = biological target: T2, Thromboxane A2 receptor (Homo sapiens, UniProt P21731); format: functional, cell-based
# T2 sequence (P21731 whole entry): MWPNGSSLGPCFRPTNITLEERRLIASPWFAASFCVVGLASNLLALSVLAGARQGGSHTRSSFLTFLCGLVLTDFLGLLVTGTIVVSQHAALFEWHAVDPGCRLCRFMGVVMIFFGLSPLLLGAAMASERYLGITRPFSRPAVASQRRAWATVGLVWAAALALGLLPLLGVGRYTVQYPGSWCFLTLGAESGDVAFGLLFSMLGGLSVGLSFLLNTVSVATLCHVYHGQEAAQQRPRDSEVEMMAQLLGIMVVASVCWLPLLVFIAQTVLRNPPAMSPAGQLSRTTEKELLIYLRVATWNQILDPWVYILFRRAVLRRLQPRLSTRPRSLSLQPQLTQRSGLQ
# [4] = biological target: T3, Alpha-2A adrenergic receptor (Homo sapiens, UniProt P08913)
# T3 sequence (P08913 whole entry): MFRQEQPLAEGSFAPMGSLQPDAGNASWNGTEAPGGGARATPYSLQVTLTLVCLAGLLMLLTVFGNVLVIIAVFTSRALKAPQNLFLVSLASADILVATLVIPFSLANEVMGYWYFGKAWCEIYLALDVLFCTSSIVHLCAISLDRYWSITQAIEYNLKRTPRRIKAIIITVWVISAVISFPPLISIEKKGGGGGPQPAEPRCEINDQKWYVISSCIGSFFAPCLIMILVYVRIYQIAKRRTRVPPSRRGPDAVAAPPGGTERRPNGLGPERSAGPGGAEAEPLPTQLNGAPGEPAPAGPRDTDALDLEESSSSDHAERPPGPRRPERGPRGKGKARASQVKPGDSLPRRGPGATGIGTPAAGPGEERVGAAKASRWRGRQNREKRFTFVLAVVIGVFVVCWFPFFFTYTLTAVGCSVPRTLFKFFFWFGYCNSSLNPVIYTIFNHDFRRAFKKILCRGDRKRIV
# [5] = biological target: Acetylcholinesterase (Homo sapiens, UniProt P22303); format: functional
# Sequence of Acetylcholinesterase (P22303 whole entry): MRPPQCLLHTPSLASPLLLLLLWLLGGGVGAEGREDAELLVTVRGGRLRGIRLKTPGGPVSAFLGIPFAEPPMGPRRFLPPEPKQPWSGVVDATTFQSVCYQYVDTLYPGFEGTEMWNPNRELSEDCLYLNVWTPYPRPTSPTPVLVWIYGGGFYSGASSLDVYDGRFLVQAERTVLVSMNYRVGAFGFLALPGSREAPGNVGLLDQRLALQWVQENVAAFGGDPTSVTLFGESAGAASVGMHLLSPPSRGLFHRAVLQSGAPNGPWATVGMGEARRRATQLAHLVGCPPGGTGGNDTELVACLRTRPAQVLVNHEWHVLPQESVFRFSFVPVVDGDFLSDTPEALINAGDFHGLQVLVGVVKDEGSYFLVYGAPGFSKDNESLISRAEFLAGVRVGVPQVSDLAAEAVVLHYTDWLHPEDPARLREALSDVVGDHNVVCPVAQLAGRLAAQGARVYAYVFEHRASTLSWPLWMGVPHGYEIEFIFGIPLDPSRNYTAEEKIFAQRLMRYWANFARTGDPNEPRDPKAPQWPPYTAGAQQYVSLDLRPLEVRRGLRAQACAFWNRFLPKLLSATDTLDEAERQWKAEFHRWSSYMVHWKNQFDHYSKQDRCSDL
# [6] = biological target: T4, 5-hydroxytryptamine receptor 1A (Homo sapiens, UniProt P08908)
# T4 sequence (P08908 whole entry): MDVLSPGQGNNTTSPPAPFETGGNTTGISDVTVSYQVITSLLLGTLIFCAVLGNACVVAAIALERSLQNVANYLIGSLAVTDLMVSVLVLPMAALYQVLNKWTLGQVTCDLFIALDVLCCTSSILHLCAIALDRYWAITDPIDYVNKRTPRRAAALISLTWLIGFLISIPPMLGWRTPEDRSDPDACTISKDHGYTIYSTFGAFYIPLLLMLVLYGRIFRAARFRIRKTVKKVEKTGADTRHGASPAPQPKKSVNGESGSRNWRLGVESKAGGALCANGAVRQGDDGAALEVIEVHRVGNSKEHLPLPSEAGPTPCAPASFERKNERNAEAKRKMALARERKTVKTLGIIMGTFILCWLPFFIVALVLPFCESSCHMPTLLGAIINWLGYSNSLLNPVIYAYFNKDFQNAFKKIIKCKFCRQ
# [7] = biological target: 3',5'-cyclic-AMP phosphodiesterase 4A (Homo sapiens, UniProt P27815); format: functional
# Sequence of 3',5'-cyclic-AMP phosphodiesterase 4A (P27815 whole entry): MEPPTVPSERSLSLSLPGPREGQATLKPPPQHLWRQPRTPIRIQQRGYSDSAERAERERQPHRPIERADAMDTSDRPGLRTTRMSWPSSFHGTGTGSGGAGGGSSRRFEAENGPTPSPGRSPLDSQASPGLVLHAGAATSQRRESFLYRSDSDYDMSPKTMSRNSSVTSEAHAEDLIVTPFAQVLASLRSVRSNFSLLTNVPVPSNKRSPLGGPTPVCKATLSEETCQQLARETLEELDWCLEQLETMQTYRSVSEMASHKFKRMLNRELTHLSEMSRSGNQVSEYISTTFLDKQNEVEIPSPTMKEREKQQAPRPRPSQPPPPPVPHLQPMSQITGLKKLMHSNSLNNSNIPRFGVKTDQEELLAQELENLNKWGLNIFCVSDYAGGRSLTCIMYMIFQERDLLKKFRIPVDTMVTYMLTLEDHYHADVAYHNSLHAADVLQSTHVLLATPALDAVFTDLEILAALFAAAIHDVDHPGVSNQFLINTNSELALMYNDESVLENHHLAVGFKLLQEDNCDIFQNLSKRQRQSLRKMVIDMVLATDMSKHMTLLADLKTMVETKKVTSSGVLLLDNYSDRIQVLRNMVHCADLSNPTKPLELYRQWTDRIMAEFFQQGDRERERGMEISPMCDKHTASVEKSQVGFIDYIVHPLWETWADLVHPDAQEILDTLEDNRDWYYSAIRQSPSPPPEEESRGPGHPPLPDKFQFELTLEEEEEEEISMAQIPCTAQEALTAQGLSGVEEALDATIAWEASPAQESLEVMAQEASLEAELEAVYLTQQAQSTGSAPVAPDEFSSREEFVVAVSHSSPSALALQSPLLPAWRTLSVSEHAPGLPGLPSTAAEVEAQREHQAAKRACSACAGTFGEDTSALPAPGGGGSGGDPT
# [8] = biological target: T5, Amine oxidase [flavin-containing] A (Homo sapiens, UniProt P21397); format: functional
# T5 sequence (P21397 whole entry): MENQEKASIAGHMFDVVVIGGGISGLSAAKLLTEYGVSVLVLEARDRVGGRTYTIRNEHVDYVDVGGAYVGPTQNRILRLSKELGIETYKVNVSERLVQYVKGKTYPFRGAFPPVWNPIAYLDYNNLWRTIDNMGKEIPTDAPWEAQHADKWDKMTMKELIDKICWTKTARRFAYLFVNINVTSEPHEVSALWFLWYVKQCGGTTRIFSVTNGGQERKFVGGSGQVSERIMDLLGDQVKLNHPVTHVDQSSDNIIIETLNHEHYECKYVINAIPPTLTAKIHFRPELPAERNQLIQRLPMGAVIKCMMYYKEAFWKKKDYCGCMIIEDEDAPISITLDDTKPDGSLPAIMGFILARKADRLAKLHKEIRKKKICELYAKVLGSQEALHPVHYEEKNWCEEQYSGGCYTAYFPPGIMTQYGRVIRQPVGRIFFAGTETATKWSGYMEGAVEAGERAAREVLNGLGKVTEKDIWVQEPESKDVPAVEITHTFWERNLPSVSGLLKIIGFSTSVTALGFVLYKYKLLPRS
# [9] = biological target: Bile salt export pump (Homo sapiens, UniProt O95342); format: functional
# Sequence of Bile salt export pump (O95342 whole entry): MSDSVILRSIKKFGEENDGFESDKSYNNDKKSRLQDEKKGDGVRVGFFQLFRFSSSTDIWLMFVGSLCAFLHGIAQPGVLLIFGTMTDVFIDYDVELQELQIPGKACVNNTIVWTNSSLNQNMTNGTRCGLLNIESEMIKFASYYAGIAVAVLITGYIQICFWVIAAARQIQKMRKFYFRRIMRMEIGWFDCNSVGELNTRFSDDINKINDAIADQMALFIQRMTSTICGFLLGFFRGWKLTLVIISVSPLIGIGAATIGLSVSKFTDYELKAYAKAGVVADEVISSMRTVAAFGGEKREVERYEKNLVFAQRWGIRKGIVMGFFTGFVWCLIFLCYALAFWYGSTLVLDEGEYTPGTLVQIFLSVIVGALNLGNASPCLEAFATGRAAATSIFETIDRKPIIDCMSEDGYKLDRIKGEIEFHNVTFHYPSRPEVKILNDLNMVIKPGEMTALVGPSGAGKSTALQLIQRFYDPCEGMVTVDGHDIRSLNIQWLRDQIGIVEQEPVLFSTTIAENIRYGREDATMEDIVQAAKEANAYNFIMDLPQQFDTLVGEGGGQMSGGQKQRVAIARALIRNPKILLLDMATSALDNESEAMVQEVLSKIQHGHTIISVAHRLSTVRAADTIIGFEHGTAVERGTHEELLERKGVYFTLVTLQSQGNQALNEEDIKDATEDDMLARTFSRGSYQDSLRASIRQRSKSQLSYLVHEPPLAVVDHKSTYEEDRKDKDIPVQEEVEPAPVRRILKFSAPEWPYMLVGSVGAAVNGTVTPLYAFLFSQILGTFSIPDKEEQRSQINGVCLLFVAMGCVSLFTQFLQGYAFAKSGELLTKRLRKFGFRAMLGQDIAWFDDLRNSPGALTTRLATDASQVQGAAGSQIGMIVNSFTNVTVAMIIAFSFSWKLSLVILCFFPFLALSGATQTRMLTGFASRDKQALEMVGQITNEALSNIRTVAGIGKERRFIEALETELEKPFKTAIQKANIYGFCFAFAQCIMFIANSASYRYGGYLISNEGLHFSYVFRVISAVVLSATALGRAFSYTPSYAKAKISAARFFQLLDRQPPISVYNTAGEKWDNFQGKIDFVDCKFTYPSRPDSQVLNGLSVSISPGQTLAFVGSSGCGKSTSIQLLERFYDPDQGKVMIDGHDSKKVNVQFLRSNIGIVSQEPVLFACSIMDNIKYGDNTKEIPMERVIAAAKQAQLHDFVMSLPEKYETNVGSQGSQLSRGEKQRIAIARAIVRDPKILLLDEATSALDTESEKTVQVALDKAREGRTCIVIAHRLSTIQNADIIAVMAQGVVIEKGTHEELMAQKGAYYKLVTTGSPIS
# [10] = biological target: Mu-type opioid receptor (Homo sapiens, UniProt P35372)
# [11] = biological target: Prothrombin (Homo sapiens, UniProt P00734); format: functional
# [12] = biological target: T1, Prostaglandin G/H synthase 1; format: functional; remark: listed apart in the source
# [13] = biological target: D(3) dopamine receptor (Homo sapiens, UniProt P35462)
# Sequence of D(3) dopamine receptor (P35462 whole entry): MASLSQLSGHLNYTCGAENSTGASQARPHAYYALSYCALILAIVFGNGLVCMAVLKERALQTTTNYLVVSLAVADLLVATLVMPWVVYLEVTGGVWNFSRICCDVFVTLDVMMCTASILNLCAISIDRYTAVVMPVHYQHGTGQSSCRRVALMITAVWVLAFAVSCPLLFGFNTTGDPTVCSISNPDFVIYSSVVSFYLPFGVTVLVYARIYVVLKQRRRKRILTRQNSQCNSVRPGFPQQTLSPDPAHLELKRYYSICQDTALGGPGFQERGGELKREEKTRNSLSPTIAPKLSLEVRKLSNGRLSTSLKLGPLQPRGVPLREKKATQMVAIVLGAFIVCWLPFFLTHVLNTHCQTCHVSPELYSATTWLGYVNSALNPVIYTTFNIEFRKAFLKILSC
# [14] = biological target: T2, Thromboxane A2 receptor; format: functional, cell-based; remark: listed apart in the source
# [15] = biological target: Histamine H3 receptor (Homo sapiens, UniProt Q9Y5N1)
# Sequence of Histamine H3 receptor (Q9Y5N1 whole entry): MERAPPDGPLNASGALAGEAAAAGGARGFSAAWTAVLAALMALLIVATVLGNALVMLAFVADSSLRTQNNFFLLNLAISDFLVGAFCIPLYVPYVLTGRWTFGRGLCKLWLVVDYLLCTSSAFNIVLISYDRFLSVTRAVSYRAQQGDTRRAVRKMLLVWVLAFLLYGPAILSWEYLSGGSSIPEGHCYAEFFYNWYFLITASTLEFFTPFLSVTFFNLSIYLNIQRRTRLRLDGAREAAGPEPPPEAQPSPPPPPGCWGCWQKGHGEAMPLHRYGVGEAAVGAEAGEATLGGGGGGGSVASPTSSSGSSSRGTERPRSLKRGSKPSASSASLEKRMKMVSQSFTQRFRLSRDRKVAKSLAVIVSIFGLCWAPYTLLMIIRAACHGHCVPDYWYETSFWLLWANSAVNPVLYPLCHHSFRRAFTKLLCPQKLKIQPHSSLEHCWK
# [16] = biological target: T6, Muscarinic acetylcholine receptor M2 (Homo sapiens, UniProt P08172)
# T6 sequence (P08172 whole entry): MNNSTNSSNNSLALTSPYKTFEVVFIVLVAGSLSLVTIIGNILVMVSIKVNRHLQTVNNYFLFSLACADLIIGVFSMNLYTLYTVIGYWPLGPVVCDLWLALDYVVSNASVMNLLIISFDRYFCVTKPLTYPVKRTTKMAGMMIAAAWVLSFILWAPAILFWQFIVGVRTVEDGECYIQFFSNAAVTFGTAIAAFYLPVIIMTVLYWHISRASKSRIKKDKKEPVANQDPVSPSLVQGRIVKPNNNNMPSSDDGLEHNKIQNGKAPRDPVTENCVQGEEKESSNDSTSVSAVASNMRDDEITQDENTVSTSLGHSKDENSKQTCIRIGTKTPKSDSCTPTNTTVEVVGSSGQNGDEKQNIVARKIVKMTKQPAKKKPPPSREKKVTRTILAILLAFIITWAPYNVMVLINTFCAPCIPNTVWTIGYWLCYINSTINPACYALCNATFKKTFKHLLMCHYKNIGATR
# Note: assay procedure not described here.
# Sequence of cGMP-inhibited 3',5'-cyclic phosphodiesterase 3A (Q14432 whole entry): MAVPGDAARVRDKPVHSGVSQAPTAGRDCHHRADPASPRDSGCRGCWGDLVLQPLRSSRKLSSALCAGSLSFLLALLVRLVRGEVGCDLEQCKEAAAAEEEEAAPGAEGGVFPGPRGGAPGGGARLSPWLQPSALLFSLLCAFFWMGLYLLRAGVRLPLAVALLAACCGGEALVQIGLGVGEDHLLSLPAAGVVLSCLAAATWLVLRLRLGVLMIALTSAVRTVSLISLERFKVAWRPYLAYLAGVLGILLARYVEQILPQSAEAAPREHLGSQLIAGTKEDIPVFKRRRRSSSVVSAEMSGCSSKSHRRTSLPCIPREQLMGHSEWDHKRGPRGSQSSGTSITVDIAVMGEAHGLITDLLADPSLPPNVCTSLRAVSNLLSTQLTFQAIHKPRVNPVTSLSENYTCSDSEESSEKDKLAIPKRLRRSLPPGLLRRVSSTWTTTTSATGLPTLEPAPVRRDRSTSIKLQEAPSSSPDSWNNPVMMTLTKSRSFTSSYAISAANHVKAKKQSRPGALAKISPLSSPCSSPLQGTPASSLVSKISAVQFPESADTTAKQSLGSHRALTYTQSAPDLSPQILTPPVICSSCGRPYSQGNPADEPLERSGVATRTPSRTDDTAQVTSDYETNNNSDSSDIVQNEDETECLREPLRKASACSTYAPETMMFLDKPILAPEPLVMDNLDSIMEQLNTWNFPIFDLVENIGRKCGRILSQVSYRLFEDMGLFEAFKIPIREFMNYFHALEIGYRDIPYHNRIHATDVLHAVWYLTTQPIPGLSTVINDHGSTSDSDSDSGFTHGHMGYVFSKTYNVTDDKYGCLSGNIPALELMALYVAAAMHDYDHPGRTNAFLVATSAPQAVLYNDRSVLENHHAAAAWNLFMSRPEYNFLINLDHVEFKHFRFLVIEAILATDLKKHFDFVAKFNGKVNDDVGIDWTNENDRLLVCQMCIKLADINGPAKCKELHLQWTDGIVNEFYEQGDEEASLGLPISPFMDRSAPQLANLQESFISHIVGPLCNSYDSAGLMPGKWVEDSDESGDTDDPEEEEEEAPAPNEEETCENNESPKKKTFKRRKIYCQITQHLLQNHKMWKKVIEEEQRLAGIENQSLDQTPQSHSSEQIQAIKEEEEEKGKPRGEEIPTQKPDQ
SMILES,AC50 [1],AC50 [2],AC50 [3],AC50 [4],AC50 [5],AC50 [6],AC50 [7],AC50 [8],AC50 [9],AC50 [10],AC50 [11],AC50 [12],AC50 [13],AC50 [14],AC50 [15],AC50 [16]
O=C(O)COc1nn(Cc2ccccc2)c2ccccc12 [BENDAZAC],> 30 µM,> 30 µM,> 3 µM,> 30 µM,> 30 µM,> 30 µM,> 30 µM,> 30 µM,260 µM,> 30 µM,> 30 µM,> 30 µM,> 30 µM,> 30 µM,> 30 µM,> 30 µM
Cc1ccc([C@@H]2O[C@H](CO)[C@@H](O)[C@H](O)[C@H]2O)cc1Cc1ccc(-c2ccc(F)cc2)s1 [CANAGLIFLOZIN ANHYDROUS],> 30 µM,> 30 µM,> 30 µM,> 30 µM,> 30 µM,> 30 µM,> 30 µM,> 30 µM,38 µM,> 30 µM,> 30 µM,> 30 µM,> 30 µM,> 30 µM,> 30 µM,> 30 µM
O=C(O)CCCc1ccc(N(CCCl)CCCl)cc1 [CHLORAMBUCIL],> 30 µM,> 30 µM,> 30 µM,> 30 µM,> 30 µM,> 30 µM,> 30 µM,> 30 µM,270 µM,> 30 µM,> 30 µM,> 30 µM,> 30 µM,> 30 µM,> 30 µM,> 30 µM
Cn1c(=O)c2c(ncn2CC(O)CO)n(C)c1=O (stereo unspecified) [DYPHYLLINE],> 30 µM,> 30 µM,> 30 µM,> 30 µM,> 30 µM,> 30 µM,> 30 µM,> 30 µM,> 300 µM,> 30 µM,> 30 µM,> 30 µM,> 30 µM,> 30 µM,> 30 µM,> 30 µM
C#Cc1cccc(Nc2ncnc3cc(OCCOC)c(OCCOC)cc23)c1 [ERLOTINIB],0.0388 µM,> 30 µM,> 30 µM,> 30 µM,> 30 µM,> 30 µM,> 30 µM,> 30 µM,6.1 µM,3.82 µM,> 30 µM,> 30 µM,> 30 µM,> 30 µM,> 30 µM,13.2 µM
CCC(=O)O[C@@H](O[P@](=O)(CCCCc1ccccc1)CC(=O)N1C[C@H](C2CCCCC2)C[C@H]1C(=O)O)C(C)C [FOSINOPRIL],> 30 µM,> 30 µM,> 30 µM,> 30 µM,> 30 µM,> 30 µM,> 30 µM,> 30 µM,11 µM,> 30 µM,> 30 µM,> 30 µM,> 30 µM,> 30 µM,> 30 µM,> 30 µM
